We go through nine compounds from PubChem BioAssay (NCI).

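All cell lines were grown in 96-well plates and treated with compound for 48 hours. Here, GI50 denotes the concentration required for 50% inhibition of growth. TGI marks complete inhibition of growth.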

Test systems include SK-OV-3 ovarian; SF-539 CNS; UO-31 renal; NCI/ADR-RES ovarian; IGROV1 ovarian; HOP-62 NSCLC; OVCAR-8 ovarian; NCI-H522 lung; KM12 colon; SNB-75 CNS.
Common to all, as to assay: NCI tumour cell line growth inhibition, 48 h

As for `OCCCN=C1CCCCC1`, the TGI in the assay with SK-OV-3 ovarian, with SF-539 CNS, in the assay with UO-31 renal, in the assay on NCI/ADR-RES ovarian, in the assay on IGROV1 ovarian and in the assay on HOP-62 NSCLC was > 100 µM each time. Besides, the TGI in the assay with OVCAR-8 ovarian, in the assay on NCI-H522 lung and in the assay with KM12 colon was > 100 µM throughout.

For the compound `CCN(CC)CCOC(COc1cc(C)cc(C)c1)COc1cc(C)cc(C)c1`, the GI50 with SNB-75 CNS was 5750 nM; with SK-OV-3 ovarian, 4860 nM; in the assay on SF-539 CNS, 1620 nM; in the assay on UO-31 renal it was 2190 nM; in the assay on NCI/ADR-RES ovarian it was 3340 nM; with HOP-62 NSCLC, 2720 nM. Moreover, the values for the GI50 in the assay on OVCAR-8 ovarian, with NCI-H522 lung and in the assay on KM12 colon were 7230 nM, 4510 nM and 3040 nM, respectively. Also, the TGI amounted to 20.8 µM in the assay with SNB-75 CNS; 17.7 µM with SK-OV-3 ovarian; 3.3 µM in the assay with SF-539 CNS; 13 µM in the assay on UO-31 renal; 14.6 µM in the assay on NCI/ADR-RES ovarian; 18.5 µM in the assay on HOP-62 NSCLC. Besides, the TGI in the assay on OVCAR-8 ovarian is 22.2 µM; in the assay on NCI-H522 lung, 18.3 µM; with KM12 colon it was 11.7 µM.

On to `Cc1cc(C)c2nc3c(c(C(O)C4CCCCN4)c2c1)CC/C3=C\c1ccc(Cl)cc1` (configuration not stated), for which the TGI in the assay on SNB-75 CNS, with SK-OV-3 ovarian, in the assay with SF-539 CNS, with NCI/ADR-RES ovarian, in the assay with IGROV1 ovarian and with HOP-62 NSCLC was > 100 µM throughout. In addition, the TGI in the assay on OVCAR-8 ovarian, with NCI-H522 lung and in the assay on KM12 colon was > 100 µM in each case.

As for `CCc1ccc2c(c1)C(=O)c1c-2n(CCCN)c(=O)c2cc(OC)c(OC)cc12`, the GI50 in the assay with SNB-75 CNS was 1960 nM; with SK-OV-3 ovarian, 2000 nM; in the assay with SF-539 CNS it was 1640 nM; in the assay with UO-31 renal it was 1740 nM; in the assay on NCI/ADR-RES ovarian, 1680 nM; in the assay on IGROV1 ovarian, 1760 nM. For the same compound, the GI50 was 1840 nM with HOP-62 NSCLC, 1590 nM with NCI-H522 lung and 1410 nM in the assay on KM12 colon. Besides, the TGI turned out to be 4.3 µM with SNB-75 CNS; 3.58 µM in the assay on SK-OV-3 ovarian; 3.07 µM in the assay with SF-539 CNS; 3.32 µM in the assay with UO-31 renal; 3.22 µM in the assay on NCI/ADR-RES ovarian; 3.36 µM with IGROV1 ovarian. Moreover, the TGI with HOP-62 NSCLC came to 3.29 µM; in the assay on NCI-H522 lung, 3.38 µM; with KM12 colon, 3.15 µM.

With `CCn1cc(C(=O)O)c(=O)c2cc(F)c(N3CCN(S(=O)(=O)c4ccc(Cl)cc4Cl)CC3)cc21`, the GI50 is 3000 nM with SK-OV-3 ovarian; 1920 nM in the assay on SF-539 CNS; 2200 nM with UO-31 renal; 3280 nM in the assay with NCI/ADR-RES ovarian; 2330 nM in the assay on IGROV1 ovarian; 3080 nM in the assay on HOP-62 NSCLC. The results for the GI50 with OVCAR-8 ovarian, with NCI-H522 lung and in the assay with KM12 colon were 3300 nM, 1810 nM and 3420 nM, respectively. The TGI came to 8.94 µM with SK-OV-3 ovarian; 4.07 µM in the assay with SF-539 CNS; 5.77 µM in the assay with UO-31 renal; 28 µM in the assay with NCI/ADR-RES ovarian; 5.08 µM in the assay on IGROV1 ovarian; 9.95 µM with HOP-62 NSCLC. Moreover, the TGI was 29 µM with OVCAR-8 ovarian, 3.73 µM in the assay on NCI-H522 lung and > 100 µM in the assay with KM12 colon.

With `[Br][Pb]([c]1ccccc1)([c]1ccccc1)[c]1ccccc1`, the GI50 with SNB-75 CNS is 99.3 nM; in the assay with SK-OV-3 ovarian it was 401 nM; in the assay on SF-539 CNS, 252 nM; in the assay with UO-31 renal it was 141 nM; with NCI/ADR-RES ovarian, 229 nM; with HOP-62 NSCLC, 218 nM. Moreover, the GI50 is 186 nM with OVCAR-8 ovarian, 158 nM in the assay on NCI-H522 lung and 356 nM in the assay on KM12 colon. Besides, the TGI in the assay on SNB-75 CNS turned out to be 0.389 µM; in the assay on SK-OV-3 ovarian, 1.51 µM; with SF-539 CNS it was 0.596 µM; in the assay on UO-31 renal it was 0.279 µM; in the assay with NCI/ADR-RES ovarian it was 0.561 µM; with HOP-62 NSCLC, 0.505 µM. Further, the figures for the TGI in the assay on OVCAR-8 ovarian, in the assay with NCI-H522 lung and in the assay on KM12 colon were 0.384 µM, 0.352 µM and 1.21 µM, respectively.

As to `COC(=O)c1c(C)nc(C)c2c1C(=O)C(Br)=C(NCc1ccccc1)C2=O`, the GI50 was 6200 nM in the assay on SK-OV-3 ovarian; 2850 nM in the assay on SF-539 CNS; 2410 nM in the assay on UO-31 renal; 2830 nM with NCI/ADR-RES ovarian; 2050 nM with IGROV1 ovarian; 3120 nM in the assay with HOP-62 NSCLC. Moreover, the GI50 in the assay on OVCAR-8 ovarian is 2510 nM; with NCI-H522 lung it was 2250 nM; in the assay with KM12 colon it was 2930 nM. In addition, the TGI in the assay on SK-OV-3 ovarian came out at 19.2 µM; in the assay with SF-539 CNS it was 8.01 µM; in the assay on UO-31 renal it was 10.7 µM; with NCI/ADR-RES ovarian, 8.16 µM; in the assay with IGROV1 ovarian, 5.45 µM; in the assay on HOP-62 NSCLC it was 10.8 µM. The TGI with OVCAR-8 ovarian came out at 7.24 µM; with NCI-H522 lung, 6.09 µM; in the assay with KM12 colon, 13.4 µM.

Consider `CCCN1C(=O)/C(=C/c2ccc(SC(F)(F)F)cc2)SC1=Nc1ccc(OC)cc1`, for which the GI50 was 15200 nM in the assay with SK-OV-3 ovarian; 9960 nM in the assay on SF-539 CNS; 8200 nM in the assay with UO-31 renal; 11000 nM in the assay on NCI/ADR-RES ovarian; 29600 nM with IGROV1 ovarian; 16500 nM in the assay on HOP-62 NSCLC. In addition, the figures for the GI50 in the assay on OVCAR-8 ovarian and in the assay on KM12 colon were 7420 nM and 19700 nM, respectively. Besides, the TGI in the assay on SK-OV-3 ovarian is > 50 µM; with SF-539 CNS, 21.6 µM; with UO-31 renal, 17.1 µM; in the assay with NCI/ADR-RES ovarian it was 42.4 µM; in the assay with IGROV1 ovarian, > 50 µM; with HOP-62 NSCLC, > 50 µM. Also, the TGI in the assay with OVCAR-8 ovarian was 20.7 µM; with KM12 colon, > 50 µM.

For the compound `Cc1ccc(NCCNCC(C)(C)O)c2c(=O)c3ccc(Cl)cc3sc12`, the GI50 is 1340 nM in the assay with SNB-75 CNS; 1460 nM with SK-OV-3 ovarian; 1440 nM in the assay on SF-539 CNS; 1030 nM in the assay with UO-31 renal; 1520 nM in the assay on NCI/ADR-RES ovarian; 1350 nM in the assay with IGROV1 ovarian. For the same compound, the GI50 was 1770 nM with OVCAR-8 ovarian, 1820 nM with NCI-H522 lung and 1630 nM with KM12 colon. For the same compound, the TGI is 2.85 µM in the assay with SNB-75 CNS; 2.98 µM in the assay with SK-OV-3 ovarian; 2.82 µM in the assay with SF-539 CNS; 2.24 µM with UO-31 renal; 3.02 µM with NCI/ADR-RES ovarian; 2.96 µM in the assay on IGROV1 ovarian. The TGI was found to be 3.32 µM with OVCAR-8 ovarian, 3.59 µM with NCI-H522 lung and 3.13 µM with KM12 colon.
